Experimental data: patent publication US9302999B2, “Substituted triazoles as herbicides” (E. I. DU PONT DE NEMOURS AND COMPANY, priority 2012, dated 2016)

Legend:
Format in all cases: in vivo
[1] = system: pigweed (Amaranthus retroflexus); assay: Test A pre-/postemergence: pigweed
Outline: (§1)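 Injury was scored visually on a 0 (no effect) to 100 (complete control) scale versus untreated controls roughly ten days after treatment in the greenhouse. Compounds, formulated in surfactant-containing non-phytotoxic solvent, went on as soil-directed preemergence spray or postemergence to one- to two-leaf plants 2–10 cm tall.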

rice (Oryza sativa) = assay: Test C flooded paddy test: rice; settings: scale 0 to 100 (0 no effect, 100 complete control)
Outline: (§2)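 2-leaf stage plants; pots flooded 3 cm above soil; compound applied into paddy water, depth maintained. Greenhouse 13–15 d. Visual rating vs controls, 0–100 (0 = no effect, 100 = complete control); dash = no result.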

corn (Zea mays) = assay: Test A pre-/postemergence: corn
Outline: as §1

[2] = system: wheat (Triticum aestivum); assay: Test A pre-/postemergence: wheat
Outline: as §1

[3] = system: sedge, umbrella (small-flower umbrella sedge, Cyperus difformis); assay: Test C flooded paddy test: sedge, umbrella; settings: scale 0 to 100 (0 no effect, 100 complete control)
Outline: as §2

[4] = system: ducksalad (Heteranthera limosa); assay: Test C flooded paddy test: ducksalad; settings: scale 0 to 100 (0 no effect, 100 complete control)
Outline: as §2

[5] = system: crabgrass, large (large crabgrass, Digitaria sanguinalis); assay: Test A pre-/postemergence: crabgrass, large
Outline: as §1

[6] = system: barnyardgrass (Echinochloa crus-galli); assay: Test A pre-/postemergence: barnyardgrass
Outline: as §1

[7] = system: barnyardgrass (Echinochloa crus-galli); assay: Test C flooded paddy test: barnyardgrass; settings: scale 0 to 100 (0 no effect, 100 complete control)
Outline: as §2

[8] = system: foxtail, giant (giant foxtail, Setaria faberii); assay: Test A pre-/postemergence: foxtail, giant
Outline: as §1

[9] = system: velvetleaf (Abutilon theophrasti); assay: Test A pre-/postemergence: velvetleaf
Outline: as §1

[10] = system: morningglory (Ipomoea spp.); assay: Test A pre-/postemergence: morningglory
Outline: as §1

[11] = Postemergence, 125 g ai/ha, 0 to 100 scale, 0 is no effect, 100 is complete control
[12] = Postemergence, 500 g ai/ha, visual rating on 0 to 100 scale (0 no effect, 100 complete control), approximately ten days
[13] = Preemergence, 125 g ai/ha, 0 to 100 scale (0 no effect, 100 complete control)
[14] = Preemergence, 500 g ai/ha, 0 to 100 scale, 0 is no effect, 100 is complete control
[15] = Flood (flooded paddy test), 62 g ai/ha, visual rating after 13 to 15 days
[16] = Flood (flooded paddy test), 125 g ai/ha, visual rating after 13 to 15 days
[17] = Flood (flooded paddy test), 250 g ai/ha, visual rating after 13 to 15 days
[18] = Postemergence, 1000 g ai/ha, visual rating on 0 to 100 scale (0 no effect, 100 complete control), approximately ten days
[19] = Preemergence, 1000 g ai/ha, 0 to 100 scale, 0 is no effect, 100 is complete control
[20] = Preemergence, 125 g ai/ha, 0 to 100 scale where 0 is no effect and 100 is complete control

Structure (SMILES): Cc1nn(-c2nc(Cl)ns2)nc1C(=O)c1cccc(C(F)(F)F)c1 [Compound 59]
- Pigweed plant response rating [1, 11]: 0
- Pigweed plant response rating [1, 12]: 0
- Plant response rating, Pigweed [1, 13]: 0
- Plant response rating, Pigweed [1, 14]: 0
- Plant response rating, Rice (rice (Oryza sativa); [15]): 0
- Plant response rating, Rice (rice (Oryza sativa); [16]): 0
- Plant response rating, Rice (rice (Oryza sativa); [17]): 0
- Plant response rating, Rice (rice (Oryza sativa); Flood, 31 g ai/ha): 0
- Corn plant response rating (corn (Zea mays); [11]): 0
- Corn plant response rating (corn (Zea mays); [12]): 0
- Plant response rating, Corn (corn (Zea mays); [13]): 0
- Plant response rating, Corn (corn (Zea mays); [14]): 0
- Wheat plant response rating [2, 11]: 0
- Wheat plant response rating [2, 12]: 0
- Plant response rating, Wheat [2, 13]: 0
- Plant response rating, Wheat [2, 14]: 0
- Plant response rating, Sedge, Umbrella [3, 15]: 0
- Plant response rating, Sedge, Umbrella [3, 16]: 0
- Plant response rating, Sedge, Umbrella [3, 17]: 0
- Plant response rating, Sedge, Umbrella ([3]; Flood, 31 g ai/ha): 0
- Plant response rating, Ducksalad [4, 15]: 0
- Plant response rating, Ducksalad [4, 16]: 0
- Plant response rating, Ducksalad [4, 17]: 0
- Plant response rating, Ducksalad ([4]; Flood, 31 g ai/ha): 0
- Crabgrass, Large plant response rating [5, 11]: 0
- Crabgrass, Large plant response rating [5, 12]: 0
- Plant response rating, Crabgrass, Large [5, 13]: 0
- Plant response rating, Crabgrass, Large [5, 14]: 0
- Barnyardgrass plant response rating [6, 11]: 0
- Barnyardgrass plant response rating [6, 12]: 0
- Plant response rating, Barnyardgrass [6, 13]: 0
- Plant response rating, Barnyardgrass [6, 14]: 0
- Plant response rating, Barnyardgrass [7, 15]: 0
- Plant response rating, Barnyardgrass [7, 16]: 0
- Plant response rating, Barnyardgrass [7, 17]: 0
- Plant response rating, Barnyardgrass ([7]; Flood, 31 g ai/ha): 0
- Foxtail, Giant plant response rating [8, 11]: 0
- Foxtail, Giant plant response rating [8, 12]: 0
- Plant response rating, Foxtail, Giant [8, 13]: 0
- Plant response rating, Foxtail, Giant [8, 14]: 0
- Velvetleaf plant response rating [9, 11]: 0
- Velvetleaf plant response rating [9, 12]: 0
- Plant response rating, Velvetleaf [9, 13]: 0
- Plant response rating, Velvetleaf [9, 14]: 0
- Morningglory plant response rating [10, 11]: 0
- Morningglory plant response rating [10, 12]: 0
- Plant response rating, Morningglory [10, 13]: 0
- Plant response rating, Morningglory [10, 14]: 0

Structure (SMILES): Cc1nn(-c2ccc(C(F)(F)F)cc2)nc1Cn1cc(C(F)(F)F)nc1Cl [Compound 9]
- Pigweed plant response rating [1, 11]: 90
- Pigweed plant response rating [1, 12]: 100
- Plant response rating, Pigweed [1, 13]: 90
- Plant response rating, Pigweed [1, 14]: 100
- Plant response rating, Rice (rice (Oryza sativa); [15]): 0
- Plant response rating, Rice (rice (Oryza sativa); [17]): 0
- Corn plant response rating (corn (Zea mays); [11]): 20
- Corn plant response rating (corn (Zea mays); [12]): 30
- Plant response rating, Corn (corn (Zea mays); [13]): 0
- Plant response rating, Corn (corn (Zea mays); [14]): 10
- Wheat plant response rating [2, 11]: 0
- Wheat plant response rating [2, 12]: 20
- Plant response rating, Wheat [2, 13]: 0
- Plant response rating, Wheat [2, 14]: 0
- Plant response rating, Sedge, Umbrella [3, 15]: 40
- Plant response rating, Sedge, Umbrella [3, 17]: 85
- Plant response rating, Ducksalad [4, 15]: 0
- Plant response rating, Ducksalad [4, 17]: 0
- Crabgrass, Large plant response rating [5, 11]: 60
- Crabgrass, Large plant response rating [5, 12]: 70
- Plant response rating, Crabgrass, Large [5, 13]: 90
- Plant response rating, Crabgrass, Large [5, 14]: 100
- Barnyardgrass plant response rating [6, 11]: 50
- Barnyardgrass plant response rating [6, 12]: 60
- Plant response rating, Barnyardgrass [6, 13]: 30
- Plant response rating, Barnyardgrass [6, 14]: 70
- Plant response rating, Barnyardgrass [7, 15]: 0
- Plant response rating, Barnyardgrass [7, 17]: 30
- Foxtail, Giant plant response rating [8, 11]: 50
- Foxtail, Giant plant response rating [8, 12]: 70
- Plant response rating, Foxtail, Giant [8, 13]: 80
- Plant response rating, Foxtail, Giant [8, 14]: 90
- Velvetleaf plant response rating [9, 11]: 60
- Velvetleaf plant response rating [9, 12]: 80
- Plant response rating, Velvetleaf [9, 13]: 30
- Plant response rating, Velvetleaf [9, 14]: 50
- Morningglory plant response rating [10, 11]: 70
- Morningglory plant response rating [10, 12]: 100
- Plant response rating, Morningglory [10, 13]: 50
- Plant response rating, Morningglory [10, 14]: 60

Structure (SMILES): Cc1nn(-c2ccc(C(F)(F)F)cc2)nc1Cn1ccc(C(F)(F)F)n1 [Compound 117]
- Pigweed plant response rating [1, 18]: 100
- Pigweed plant response rating [1, 19]: 100
- Plant response rating, Rice (rice (Oryza sativa); [16]): 25
- Plant response rating, Rice (rice (Oryza sativa); [17]): 40
- Plant response rating, Rice (rice (Oryza sativa); Flood, 31 g ai/ha): 15
- Plant response rating, Rice (rice (Oryza sativa); Flood, 62 g ai/ha): 15
- Corn plant response rating (corn (Zea mays); [18]): 40
- Corn plant response rating (corn (Zea mays); [19]): 50
- Wheat plant response rating [2, 18]: 20
- Wheat plant response rating [2, 19]: 10
- Plant response rating, Sedge, Umbrella [3, 16]: 75
- Plant response rating, Sedge, Umbrella [3, 17]: 85
- Plant response rating, Sedge, Umbrella ([3]; Flood, 31 g ai/ha): 65
- Plant response rating, Sedge, Umbrella ([3]; Flood, 62 g ai/ha): 70
- Plant response rating, Ducksalad [4, 16]: 80
- Plant response rating, Ducksalad [4, 17]: 85
- Plant response rating, Ducksalad ([4]; Flood, 31 g ai/ha): 30
- Plant response rating, Ducksalad ([4]; Flood, 62 g ai/ha): 50
- Crabgrass, Large plant response rating [5, 18]: 90
- Crabgrass, Large plant response rating [5, 19]: 100
- Barnyardgrass plant response rating [6, 18]: 80
- Barnyardgrass plant response rating [6, 19]: 100
- Plant response rating, Barnyardgrass [7, 16]: 65
- Plant response rating, Barnyardgrass [7, 17]: 80
- Plant response rating, Barnyardgrass ([7]; Flood, 31 g ai/ha): 50
- Plant response rating, Barnyardgrass ([7]; Flood, 62 g ai/ha): 60
- Foxtail, Giant plant response rating [8, 18]: 90
- Foxtail, Giant plant response rating [8, 19]: 100
- Velvetleaf plant response rating [9, 18]: 100
- Velvetleaf plant response rating [9, 19]: 30
- Morningglory plant response rating [10, 18]: 90
- Morningglory plant response rating [10, 19]: 40

Structure (SMILES): Cc1nn(-c2ccc(F)cc2)nc1Oc1cccc(C(F)(F)F)c1 [Compound 98]
- Pigweed plant response rating [1, 11]: 100
- Pigweed plant response rating [1, 12]: 100
- Plant response rating, Pigweed [1, 20]: 60
- Plant response rating, Pigweed [1, 14]: 100
- Plant response rating, Rice (rice (Oryza sativa); [16]): 30
- Plant response rating, Rice (rice (Oryza sativa); [17]): 40
- Plant response rating, Rice (rice (Oryza sativa); Flood, 31 g ai/ha): 0
- Plant response rating, Rice (rice (Oryza sativa); Flood, 62 g ai/ha): 0
- Corn plant response rating (corn (Zea mays); [11]): 20
- Corn plant response rating (corn (Zea mays); [12]): 30
- Plant response rating, Corn (corn (Zea mays); [13]): 0
- Plant response rating, Corn (corn (Zea mays); [14]): 10
- Wheat plant response rating [2, 11]: 10
- Wheat plant response rating [2, 12]: 30
- Plant response rating, Wheat [2, 20]: 0
- Plant response rating, Wheat [2, 14]: 20
- Plant response rating, Sedge, Umbrella [3, 16]: 40
- Plant response rating, Sedge, Umbrella [3, 17]: 80
- Plant response rating, Sedge, Umbrella ([3]; Flood, 31 g ai/ha): 0
- Plant response rating, Sedge, Umbrella ([3]; Flood, 62 g ai/ha): 0
- Plant response rating, Ducksalad [4, 16]: 30
- Plant response rating, Ducksalad [4, 17]: 70
- Plant response rating, Ducksalad ([4]; Flood, 31 g ai/ha): 0
- Plant response rating, Ducksalad ([4]; Flood, 62 g ai/ha): 0
- Crabgrass, Large plant response rating [5, 11]: 90
- Crabgrass, Large plant response rating [5, 12]: 90
- Plant response rating, Crabgrass, Large [5, 13]: 80
- Plant response rating, Crabgrass, Large [5, 14]: 100
- Barnyardgrass plant response rating [6, 11]: 30
- Barnyardgrass plant response rating [6, 12]: 80
- Plant response rating, Barnyardgrass [6, 13]: 10
- Plant response rating, Barnyardgrass [6, 14]: 60
- Plant response rating, Barnyardgrass [7, 16]: 30
- Plant response rating, Barnyardgrass [7, 17]: 70
- Plant response rating, Barnyardgrass ([7]; Flood, 31 g ai/ha): 0
- Plant response rating, Barnyardgrass ([7]; Flood, 62 g ai/ha): 0
- Foxtail, Giant plant response rating [8, 11]: 80
- Foxtail, Giant plant response rating [8, 12]: 90
- Plant response rating, Foxtail, Giant [8, 20]: 70
- Plant response rating, Foxtail, Giant [8, 14]: 100
- Velvetleaf plant response rating [9, 11]: 60
- Velvetleaf plant response rating [9, 12]: 80
- Plant response rating, Velvetleaf [9, 20]: 0
- Plant response rating, Velvetleaf [9, 14]: 50
- Morningglory plant response rating [10, 11]: 80
- Morningglory plant response rating [10, 12]: 100
- Plant response rating, Morningglory [10, 20]: 0
- Plant response rating, Morningglory [10, 14]: 10
